Assay results published in patent publication US5296480A, “Angiotensin II receptor blocking 2,3,6-substituted 5,6,7,8-tetra-hydro-pyrido[4,3]pyrimidin-4(3H)-ones” (American Cyanamid Company, priority 1993, dated 1994).

Target: T1, Angiotensin II Receptor (Bos taurus, UniProt P25104)
T1 construct: added in 20 ul to wells before the introduction of tissue membranes; from tissue; host or cells: microsomal membranes of an unnamed tissue
T1 sequence (P25104 1-359): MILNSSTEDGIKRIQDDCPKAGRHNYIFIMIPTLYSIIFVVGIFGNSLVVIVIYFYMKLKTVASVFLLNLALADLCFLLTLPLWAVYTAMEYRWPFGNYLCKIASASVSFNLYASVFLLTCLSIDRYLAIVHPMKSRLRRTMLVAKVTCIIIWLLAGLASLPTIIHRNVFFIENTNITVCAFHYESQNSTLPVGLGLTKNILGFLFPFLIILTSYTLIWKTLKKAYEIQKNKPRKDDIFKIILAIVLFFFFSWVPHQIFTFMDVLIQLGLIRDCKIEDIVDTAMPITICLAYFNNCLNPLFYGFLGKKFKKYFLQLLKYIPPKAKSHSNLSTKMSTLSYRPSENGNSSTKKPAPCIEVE
Assay: Receptor Binding Assay: displacement of [^125 I](Sar^1,Ile^8)AngII from microsomal membranes
Conditions: pH 7.4, 60 min, room temperature
Method: Binding of [^125 I](Sar^1, Ile^8)AngII
The binding of [^125 I](Sar^1,Ile^8)AngII to microsomal membranes is initiated by the addition of reconstituted membranes (1:10 vols.) in freshly made 50.0 mMTris.HCl buffer, pH 7.4 containing 0.25% heat inactivated bovine serum albumin (BSA): 80 ul membrane protein (10 to 20 ug/assay) to wells already containing 100 ul of incubation buffer (as described above) and 20 ul [^125 I](Sar^1,Ile^8)AngII (Specific Activity, 2200 Ci/mmole). Non-specific binding is measured in the presence of 1.0 uM unlabeled (Sar^1,Ile^8 )AngII, added in 20 ul volume. Specific binding for [^125 I](Sar^1,Ile^8) AngII is greater than 90%. In competition studies, experimental compounds are diluted in dimethylsulfoxide (DMSO) and added in 20 ul to wells before the introduction of tissue membranes. This concentration of DMSO is found to have no negative effects on the binding of [^125 I](Sar^1,Ile^8) AngII to the membranes. Assays are performed in triplicate. […] Presoaking the filter sheet in 0.1% polyethylenemine in normal saline (PEI/Saline) greatly reduces the radioactivity retained by the filter blanks. […] The filters are removed from the filter grid and counted in a Parkard® Cobra Gamma Counter for 1 min. […] The binding data are analyzed by the non-linear interactive "LUNDON-1" program (LUNDON SOFTWARE Inc., Cleveland, Ohio U.S.A.). […]

## CCCCc1nc2c(c(=O)n1Cc1ccc(-c3ccccc3-c3nn[nH]n3)cc1)CN(C(=O)c1cccnc1)CC2 [Example 10]
  IC50: 51 nM
